Non-standard residues stand in square brackets, D forms with d. No end group written: not given here. Hyp = O=C(O)[C@@H]1C[C@@H](O)CN1
System: three-dimensional human skin model (type I collagen production)
Assay: Type I collagen production in three-dimensional human skin model (TESTSKIN LSE-high), Western blotting with imaging analysis
Type: cell-based
Experimental: Three-dimensional human skin models are widely used in safety evaluation and effectiveness evaluation as a simulated model of human skin. In this test, TESTSKIN (LSE-high) (Toyobo Co., Ltd.) was used as a three-dimensional human skin model.
A culture medium was added to the outer well of TESTSKIN (LSE-high) and cultured for 24 hours. Thereafter, the culture solution was changed and each agent was added by 100 μl onto the tissues in the assay ring, after which the medium was cultured for 36 hours. Thereafter, the tissues were collected and a tissue extraction solution (50 mM Tris-HCl (pH 7.5), 0.5% (Octylphenoxy) polyethoxyethanol (Sigma-Aldrich Corp.)) was added, and then the mixture was homogenized using a homogenizer made of fluorocarbon resin. The homogenized mixture was centrifuged for 30 minutes at 10,000×G to remove tissue fragments, and then dialyzed overnight in distilled water at 4° C. Thereafter, the dialyzed mixture was freeze-dried to remove water. A tissue extraction solution was added to obtain a x20 concentrate, and this concentrate was used in Western blotting as a three-dimensional skin model extract sample.
Using a three-dimensional human skin model extract sample, 10 μg of protein was applied per lane, after which the sample was separated via SDS-PAGE and the result was transferred onto nitrocellulose membranes. The transferred nitrocellulose membranes were soaked in a blocking solution (solution prepared by dissolving skim milk in a PBS containing 0.1% polyoxyethylene (20) sorbitan monolaurate to achieve a concentration of 5%) and blocked for one whole day at 4° C. The blocked membranes were washed with a washing solution (PBS containing 0.1% polyoxyethylene (20) sorbitan monolaurate) and then soaked in a primary antibody (polyclonal antibody of type I collagen (Rockland Inc.) adjusted to 500 ng/ml using a washing solution) to cause reaction for 1 hour at room temperature. The reacted membranes were washed and then soaked in a secondary antibody (horseradish peroxidase labeled anti-rabbit immunoglobulin G adjusted to 250 ng/ml using a washing solution) to cause reaction for 1 hour at room temperature. The reacted membranes were washed and then detection was performed using an ECL plus Western blotting detection reagent (Amersham Biosciences Inc.). The detected band was also scanned into an image scanner (Amersham Biosciences Inc.) and analyzed using image master software (Amersham Biosciences Inc.) for conversion to numerical values.

[1] = 10 μM, 36 h treatment, Example 1, FIGS. 1 and 2
[2] = 10 μM alone, Example 3, FIGS. 9 and 10
[3] = 10 μM, Example 3, FIGS. 7 and 8
[4] = 30 μM, Example 3, FIGS. 7 and 8

Compound | type I collagen production compared to the level in the untreated control [1] [times] | type I collagen production compared to the level in the untreated control [2] [times] | type I collagen production compared to the level in the untreated control [3] [times] | type I collagen production compared to the level in the untreated control [4] [times] | further results
COc1cc(C2Oc3cc([C@H]4Oc5cc(O)cc(O)c5C(=O)[C@@H]4O)ccc3OC2CO)ccc1O (stereo partly drawn) [silybin] | 3.2 |  |  |  | type I collagen production compared to the level in the untreated control (5 μM alone, Example 3, FIGS. 9 and 10): 1.95 times; type I collagen production compared to the level in the untreated control (5 μM used alone, Example 2, FIGS. 5 and 6): 1.85 times
COc1cc([C@@H]2Oc3c(O)cc([C@H]4Oc5cc(O)cc(O)c5C(=O)[C@@H]4O)cc3[C@H]2CO)ccc1O [silychristin] | 0.95 |  |  |  | 
COc1cc([C@@H]2[C@H]3CO[C@@]4(O)C(=O)[C@@H]2C=C([C@H]2Oc5cc(O)cc(O)c5C(=O)[C@@H]2O)[C@@H]34)ccc1O [silydianin] | 0.9 |  |  |  | 
Gly-Glu-Pro-Arg (GEPR) [peptide derived from an immunoglobulin G decomposition product, synthesized] |  | 2.10 | 2.15 | 3.55 | 
Gly-His-Lys |  | 1.75 | 1.75 | 2.70 | 
Gly-Pro-[Hyp] |  |  |  |  | type I collagen production compared to the level in the untreated control (5 μM, Example 2, FIGS. 3 and 4): 1.05 times; type I collagen production compared to the level in the untreated control (10 μM, Example 2, FIGS. 3 and 4): 1.15 times; type I collagen production compared to the level in the untreated control (30 μM used alone, Example 2, FIGS. 5 and 6): 1.25 times; type I collagen production compared to the level in the untreated control (30 μM, Example 2, FIGS. 3 and 4): 1.25 times
Lys-Thr-Thr-Lys-Ser (KTTKS) [pentapeptide derived from an α1 collagen decomposition product, synthesized] |  | 1.80 | 1.80 | 2.45 | 
